molecular target: T1, hFXR (Homo sapiens, UniProt Q96RI1); experiment: In Vitro FXR Assay (TK): TK-ECRE-luc reporter in transfected CV-1 cells; assay type: cell-based; conditions: 18 hrs, luminescence, maximum efficacy of <25% of the Fexarmine control classified as '+'
T1 construct: expressed in transfected cells; host or cells: CV-1 cells
T1 sequence (Q96RI1 1-486): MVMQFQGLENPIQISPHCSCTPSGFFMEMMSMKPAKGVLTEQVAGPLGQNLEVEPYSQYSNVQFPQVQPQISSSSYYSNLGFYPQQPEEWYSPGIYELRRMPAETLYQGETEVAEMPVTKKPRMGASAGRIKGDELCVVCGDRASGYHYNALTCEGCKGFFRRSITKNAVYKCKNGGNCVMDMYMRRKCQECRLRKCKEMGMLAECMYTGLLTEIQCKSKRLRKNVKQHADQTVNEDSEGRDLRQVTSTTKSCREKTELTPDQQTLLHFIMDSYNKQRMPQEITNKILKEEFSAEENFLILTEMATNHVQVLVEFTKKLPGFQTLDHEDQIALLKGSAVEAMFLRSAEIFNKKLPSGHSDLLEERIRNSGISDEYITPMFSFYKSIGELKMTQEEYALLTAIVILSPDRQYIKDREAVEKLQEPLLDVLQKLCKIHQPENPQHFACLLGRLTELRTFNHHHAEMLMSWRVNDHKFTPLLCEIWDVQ
T1 sequence (P19793 1-462 partner): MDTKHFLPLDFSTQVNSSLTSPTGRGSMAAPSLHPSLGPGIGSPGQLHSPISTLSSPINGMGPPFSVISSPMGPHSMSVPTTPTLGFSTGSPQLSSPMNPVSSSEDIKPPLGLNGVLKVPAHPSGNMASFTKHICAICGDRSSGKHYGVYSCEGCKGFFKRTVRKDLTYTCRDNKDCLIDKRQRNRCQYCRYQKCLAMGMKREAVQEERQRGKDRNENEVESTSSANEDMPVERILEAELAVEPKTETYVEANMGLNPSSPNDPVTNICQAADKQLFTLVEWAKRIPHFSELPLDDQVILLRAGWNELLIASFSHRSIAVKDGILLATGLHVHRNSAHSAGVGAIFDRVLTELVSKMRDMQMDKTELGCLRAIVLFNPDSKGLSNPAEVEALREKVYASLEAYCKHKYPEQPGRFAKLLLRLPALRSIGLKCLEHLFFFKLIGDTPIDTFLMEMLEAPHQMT
Method in brief: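 Reporter transactivation by hFXR was measured in CV-1 cells carrying hRXR and a TK-ECRE-luc construct, with compound treatment for 18 h before lysis and luminescence detection.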

Row | EC50 | Structure (SMILES)
1 | ≤ 250 nM | COc1ccc([C@H]2CC[C@H](CN(c3cc(-c4cnn(C5CC5)c4)ccn3)C(=O)[C@H]3CC[C@H](NC(=O)COC(C)=O)CC3)CC2)cc1C [Compound 26.31, 2-((trans-4-(4-(1-Cyclopropyl-1H-pyrazol-4-yl)pyridin-2-yl)((trans-4-(4-methoxy-3-methylphenyl)cyclohexyl)methyl)carbamoyl)cyclohexyl)amino)-2-oxoethyl acetate]
2 | ≤ 250 nM | COc1ccc([C@H]2CC[C@H](CN(c3cc(-c4cnn(C5CC5)c4)ccn3)C(=O)[C@H]3CC[C@H](NC(=O)CO)CC3)CC2)cc1C [Compound 26.32, trans-N-(4-(1-Cyclopropyl-1H-pyrazol-4-yl)pyridin-2-yl)-4-(2-hydroxyacetamido)-N-((trans-4-(4-methoxy-3-methylphenyl)cyclohexyl)methyl) cyclohexanecarboxamide]
3 | ≤ 250 nM | COc1ccc([C@H]2CC[C@H](CN(c3cc(-c4cnn(C(C)C)c4)ccn3)C(=O)[C@H]3CC[C@H](NC(C)=O)CC3)CC2)cc1C [Compound 26.33, trans-4-Acetamido-N-(4-(1-isopropyl-1H-pyrazol-4-yl)pyridin-2-yl)-N-((trans-4-(4-methoxy-3-methylphenyl)cyclohexyl)methyl)cyclohexanecarboxamide]
4 | ≤ 250 nM | COc1ccc([C@H]2CC[C@H](CN(c3cc(-c4cnn(C(C)C)c4)ccn3)C(=O)[C@H]3CC[C@H](NC(=O)COC(C)=O)CC3)CC2)cc1C [Compound 26.34, 2-((trans-4-((4-(1-Isopropyl-1H-pyrazol-4-yl)pyridin-2-yl)((trans-4-(4-methoxy-3-methylphenyl)cyclohexyl)methyl)carbamoyl)cyclohexyl)amino)-2-oxoethyl acetate]
5 | ≤ 250 nM | COc1ccc([C@H]2CC[C@H](CN(c3cc(-c4cnn(C(C)C)c4)ccn3)C(=O)[C@H]3CC[C@H](NC(=O)CO)CC3)CC2)cc1C [Compound 26.35, trans-4-(2-Hydroxyacetamido)-N-(4-(1-isopropyl-1H-pyrazol-4-yl)pyridin-2-yl)-N-((trans-4-(4-methoxy-3-methylphenyl)cyclohexyl)methyl) cyclohexanecarboxamide]
6 | ≤ 250 nM | CNC(=O)N[C@H]1CC[C@H](C(=O)N(C[C@H]2CC[C@H](c3ccc(OC)c(C)c3)CC2)c2cccc(-c3cnc(C4CC4)s3)c2)CC1 [Compound 26.36, trans-N-(3-(2-Cyclopropylthiazol-5-yl)phenyl)-N-((trans-4-(4-methoxy-3-methylphenyl)cyclohexyl)methyl)-4-(3-methylureido)cyclohexanecarboxamide]
7 | ≤ 250 nM | CNC(=O)N[C@H]1CC[C@H](C(=O)N(C[C@H]2CC[C@H](c3ccc(OC)c(C)c3)CC2)c2cccc(-c3cnn(C4CC4)c3)c2)CC1 [Compound 26.37, trans-N-(3-(1-Cyclopropyl-1H-pyrazol-4-yl)phenyl)-N-((trans-4-(4-methoxy-3-methylphenyl)cyclohexyl)methyl)-4-(3-methylureido)cyclohexanecarboxamide]
8 | ≤ 250 nM | COc1ccc([C@H]2CC[C@H](CN(c3cccc(-c4cnc(C5CC5)s4)c3)C(=O)[C@H]3CC[C@H](NC(=O)C(C)(C)O)CC3)CC2)cc1C [Compound 27, trans-N-(3-(2-Cyclopropylthiazol-5-yl)phenyl)-4-(2-hydroxy-2-methylpropanamido)-N-((trans-4-(4-methoxy-3-methylphenyl)cyclohexyl)methyl)cyclohexanecarboxamide]
9 | ≤ 250 nM | COc1ccc([C@H]2CC[C@H](CN(c3cccc(-c4cnc(C5CC5)s4)c3)C(=O)[C@H]3CC[C@H](NC(=O)C(C)O)CC3)CC2)cc1C (stereo partly drawn) [Compound 27.01, trans-N-(3-(2-Cyclopropylthiazol-5-yl)phenyl)-4-(2-hydroxypropanamido)-N-((trans-4-(4-methoxy-3-methylphenyl)cyclohexyl)methyl) cyclohexanecarboxamide]
10 | ≤ 250 nM | COc1ccc([C@H]2CC[C@H](CN(c3cccc(-c4cnc(C5CC5)s4)c3)C(=O)[C@H]3CC[C@H](NC(=O)C4COC4)CC3)CC2)cc1C [Compound 27.02, N-(trans-4-((3-(2-Cyclopropylthiazol-5-yl)phenyl)((trans-4-(4-methoxy-3-methylphenyl)cyclohexyl)methyl)carbamoyl)cyclohexyl)oxetane-3-carboxamide]
11 | 250 to 1000 nM | COc1ccc([C@H]2CC[C@H](CN(c3cccc(-c4cnc(C5CC5)s4)c3)C(=O)[C@H]3CC[C@H](NC(=O)Cn4ccnc4)CC3)CC2)cc1C [Compound 27.03, trans-4-(2-(1H-Imidazol-1-yl)acetamido)-N-(3-(2-cyclopropylthiazol-5-yl)phenyl)-N-((trans-4-(4-methoxy-3-methylphenyl)cyclohexyl)methyl)cyclohexanecarboxamide]
12 | ≤ 250 nM | COc1ccc([C@H]2CC[C@H](CN(c3cccc(-c4cnc(C5CC5)s4)c3)C(=O)[C@H]3CC[C@H](NC(=O)Cc4ncc[nH]4)CC3)CC2)cc1C [Compound 27.04, trans-4-(2-(1H-Imidazol-2-yl)acetamido)-N-(3-(2-cyclopropylthiazol-5-yl)phenyl)-N-((trans-4-(4-methoxy-3-methylphenyl)cyclohexyl)methyl)cyclohexanecarboxamide]
13 | ≥ 1000 nM | COc1ccc([C@H]2CC[C@H](CN(c3cccc(-c4cnc(C5CC5)s4)c3)C(=O)[C@H]3CC[C@H](NC(=O)C4CN(C)C4)CC3)CC2)cc1C [Compound 27.05, N-(trans-4-((3-(2-Cyclopropylthiazol-5-yl)phenyl)((trans-4-(4-methoxy-3-methylphenyl)cyclohexyl)methyl)carbamoyl)cyclohexyl)-1-methylazetidine-3-carboxamide]
14 | ≥ 1000 nM | COc1ccc([C@H]2CC[C@H](CN(c3cccc(-c4cnc(C5CC5)s4)c3)C(=O)[C@H]3CC[C@H](NC(=O)C4CNC4)CC3)CC2)cc1C [Compound 27.06, N-(trans-4-((3-(2-Cyclopropylthiazol-5-yl)phenyl)((trans-4-(4-methoxy-3-methylphenyl)cyclohexyl)methyl)carbamoyl)cyclohexyl)azetidine-3-carboxamide]
15 | ≤ 250 nM | COc1ccc([C@H]2CC[C@H](CN(c3cccc(-c4cnc(C5CC5)s4)c3)C(=O)[C@H]3CC[C@H](NC(=O)OCCO)CC3)CC2)cc1C [Compound 28, 2-Hydroxyethyl (trans-4-((3-(2-cyclopropylthiazol-5-yl)phenyl)((trans-4-(4-methoxy-3-methylphenyl)cyclohexyl)methyl)carbamoyl)cyclohexyl)carbamate]
16 | ≥ 1000 nM | COc1ccc([C@H]2CC[C@H](CN(c3cccc(-c4cnn(C(C)C)c4)c3)C(=O)[C@H]3CC[C@H](NCC(=O)O)CC3)CC2)cc1C [Compound 29, 2-((trans-4-((3-(1-Isopropyl-1H-pyrazol-4-yl)phenyl)((trans-4-(4-methoxy-3-methylphenyl)cyclohexyl)methyl)carbamoyl)cyclohexyl)amino)acetic Acid]
17 | ≤ 250 nM | COc1ccc([C@H]2CC[C@H](CN(c3cccc(-c4cnn(C5CC5)c4)c3)C(=O)[C@H]3CC[C@H](NC(=O)C4CC(OC)C4)CC3)CC2)cc1C (stereo partly drawn) [Compound 30, trans-N-(3-(1-Cyclopropyl-1H-pyrazol-4-yl)phenyl)-N-((trans-4-(4-methoxy-3-methylphenyl)cyclohexyl)methyl)-4-(3-methoxycyclobutanecarboxamido)cyclohexanecarboxamide]
18 | ≤ 250 nM | COc1ccc([C@H]2CC[C@H](CN(c3cccc(-c4cnn(C5CC5)c4)c3)C(=O)[C@H]3CC[C@H](NC(=O)C4CCC4)CC3)CC2)cc1C [Compound 30.01, trans-4-(Cyclobutanecarboxamido)-N-(3-(1-cyclopropyl-1H-pyrazol-4-yl)phenyl)-N-((trans-4-(4-methoxy-3-methylphenyl)cyclohexyl)methyl) cyclohexanecarboxamide]
19 | ≤ 250 nM | COc1ccc([C@H]2CC[C@H](CN(c3cc(-c4coc(C5CC5)n4)ccn3)C(=O)[C@H]3CC[C@H](NC(=O)C4CCC4)CC3)CC2)nc1C [Compound 30.02, trans-4-(cyclobutanecarboxamido)-trans-(4-(2-cyclopropyloxazol-4-yl)pyridine-2-yl)-N-((trans-4-(5-methoxy-6-methylpyridin-2-yl)cyclohexyl)methyl) cyclohexanecarboxamide]
20 | ≤ 250 nM | COc1ccc([C@H]2CC[C@H](CN(c3cc(-c4coc(C5CC5)n4)ccn3)C(=O)[C@H]3CC[C@H](NC(=O)C4CC(OC)C4)CC3)CC2)nc1C (stereo partly drawn) [Compound 30.03, trans-N-(4-(2-Cyclopropyloxazol-4-yl)pyridin-2-yl)-N-((trans-4-(5-methoxy-6-methylpyridin-2-yl)cyclohexyl)methyl)-4-(3-methoxycyclobutanecarboxamido) cyclohexanecarboxamide]

From patent US20220089575A1, “FARNESOID X RECEPTOR AGONISTS AND USES THEREOF” (Metacrine, Inc., priority 2017, published 2022)
